Where no end group is shown, it is not given here.
System: neoantigen-reactive T-cells (patient PBMCs)
Experiment: IFN-gamma ELISpot of in vitro expanded (IVS) NSCLC patient PBMCs
Type: cell-based, human
Settings: IFN-gamma ELISpot after 14 day IVS culture of NSCLC patient PBMCs

Sequence | T-cell recognition of individual neoantigen peptide
DENITTIQF | peptide-specific T-cell response was deconvolved
DTVEYPYTSF | peptide-specific T-cell response was deconvolved
EVADAATLTM | peptide-specific T-cell response was deconvolved
GTKKDVDVLK | recognized by CD8 T-cells
QDVSVQVER | peptide-specific T-cell response was deconvolved

— patent publication US20200363414A1, “Neoantigen Identification for T-Cell Therapy” (Gritstone Oncology, Inc., priority 2018, published 2020)
